Measured values taken from publication PMC5522071, “Preclinical development of G1T38: A novel, potent and selective inhibitor of cyclin dependent kinases 4/6 for use as an oral antineoplastic in patients with CDK4/6 sensitive tumors” (Oncotarget, 2017).
Read-outs that look alike come from different tables or passages of the source.

Assays:
H1975 xenograft = assay: H1975 NSCLC xenograft model; assay type: in vivo, mice
From the text: To evaluate the efficacy of G1T38 in combination with EGFR inhibitors, the H1975 xenograft model was utilized. H1975 is a human NSCLC that harbors the […] mutations rendering resistance to erlotinib treatment.
Afatinib is an irreversible second generation pan-ErbB inhibitor developed as a first-line treatment of patients with metastatic NSCLC whose tumors harbor EGFR mutations or deletions as well as in patients with metastatic disease that progressed after platinum-based chemotherapy.
Female NCI Ath/nu mice were implanted with H1975 NSC lung adenocarcinoma model. Once tumors reached an average size of 100- 150 mm^3, mice were randomized into treatment cohorts. Mice were orally administered daily afatinib (20 mg/kg, Genentech/OSI), erlotinib (70 mg/kg, LC Labs), or G1T38 (50 or 100 mg/kg), as single agents or in combination (G1T38 + erlotinib or G1T38 + afatinib) for the duration of the study. Tumors were measured twice weekly until mice reached tumor burden of 1500 mm^3.

ER+ MCF7 xenograft = assay: MCF-7 breast cancer xenograft model; assay type: in vivo, mice; conditions: for tumor growth inhibition (TGI): after 27 days of treatment
Procedure: Tumors were measured every 3 to 4 days during treatment for up to 20 days post-treatment. […] South Texas Accelerated Research Therapeutics (START; San Antonio, Texas) evaluated the antitumor activity of G1T38 in a START Cell-Based Xenograft (START-CBX) tumor model, MCF-7, representing human breast cancer. Data collected from this efficacy study included animal weights, observations, and tumor dimensions. This information was used to determine agent tolerability based on weight change and gross physiologic changes, and anticancer activity based on tumor growth inhibition or regression. Study endpoint was Day 60. MCF-7 cells were harvested from culture and injected into immune-deficient mice and the study initiated at a mean tumor volume of approximately 150-250 mm^3. […] Tumor growth inhibition (%TGI) was calculated using the following equation: %TGI=(1-(((TVtmtfinal-TVtmtinitial))/((AVERAGE(TVctlfinal))-(AVERAGE(TVctlinital)))))*100.

neutrophils = assay: Peripheral blood analysis, 28 days daily oral dosing
[1] = parameters: method as in earlier work; conditions: Mouse; cited from earlier work
7-day continuous oral PK = conditions: C57BL/6, mouse, plasma
[2] = parameters: method as in earlier work; conditions: Dog; cited from earlier work
[3] = cited from earlier work
[4] = parameters: method as in earlier work; conditions: Rat; cited from earlier work

CN(C)C/C=C/C(=O)Nc1cc2c(Nc3ccc(F)c(Cl)c3)ncnc2cc1O[C@H]1CCOC1 [afatinib, reference compound]
time at which tumors began to regrow (H1975 xenograft; afatinib only cohort, 20 mg/kg): ≤ 14 days

C#Cc1cccc(Nc2ncnc3cc(OCCOC)c(OCCOC)cc23)c1 [erlotinib, reference compound]
difference from vehicle treated mice (H1975 xenograft; 70 mg/kg daily): no significant difference

CC/C(=C(\c1ccccc1)c1ccc(/C=C/C(=O)O)cc1)c1ccccc1 [GW5638, reference compound]
TGI as single agents (GW5638 study) (ER+ MCF7 xenograft; G1T38 25 or 50 mg/kg alone, GW5638 25 mg/kg alone): modest TGI

CC(=O)c1c(C)c2cnc(Nc3ccc(N4CCNCC4)cn3)nc2n(C2CCCC2)c1=O [palbociclib]
tumor growth inhibition (TGI) (ER+ MCF7 xenograft; 10 mg/kg once daily oral): 18%
tumor growth inhibition (TGI) (ER+ MCF7 xenograft; 50 mg/kg once daily oral): 66%
time to tumor regression (ER+ MCF7 xenograft; 100 mg/kg daily oral): ≤ 10 days
tumor growth inhibition (TGI) (ER+ MCF7 xenograft; 100 mg/kg once daily oral): 87%
decrease in neutrophils compared with G1T38 (neutrophils): similar
T1/2 [1]: 2.5 to 4.2 h
concentration at 24 h (7-day continuous oral PK): ~600 nM
T1/2 [2]: 20.7 h
T1/2 ([3]; Human): 29 h
half-life ([3]; in humans): > 24 h
T1/2 [4]: 2.4 to 4.9 h
